IC50 data for 28 molecules are collected here from patent US9328099B2, “Cyanomethylpyrazole carboxamides as janus kinase inhibitors” (Merck Sharp & Dohme Corp., priority 2011, dated 2016).

One test addresses JAK2 (Homo sapiens (Human), UniProt O60674). The test is described as follows: Jak Biochemical HTRF Assay, JAK2. The note with it: HTRF biochemical assay, GST-tagged catalytic domain; top concentration tested […]. From the text: (§1) Jak Biochemical HTRF Assay Protocol
(§2) Subsequent reagent additions employed an Agilent Bravo.
Background: Time-resolved FRET reads energy transfer from a long-lived donor to a nearby acceptor.

The target of a further test is JAK1 (Homo sapiens (Human), UniProt P23458). Put plainly: Jak Biochemical HTRF Assay, JAK1. The conditions noted are these: HTRF biochemical assay, GST-tagged catalytic domain; top concentration tested […]; read-out: JAK1 IC50.
From the text: as §1, §2

A word on the IC50: it is the concentration that inhibits the measured activity by half.

JAK1, sequence (P23458 875-1153): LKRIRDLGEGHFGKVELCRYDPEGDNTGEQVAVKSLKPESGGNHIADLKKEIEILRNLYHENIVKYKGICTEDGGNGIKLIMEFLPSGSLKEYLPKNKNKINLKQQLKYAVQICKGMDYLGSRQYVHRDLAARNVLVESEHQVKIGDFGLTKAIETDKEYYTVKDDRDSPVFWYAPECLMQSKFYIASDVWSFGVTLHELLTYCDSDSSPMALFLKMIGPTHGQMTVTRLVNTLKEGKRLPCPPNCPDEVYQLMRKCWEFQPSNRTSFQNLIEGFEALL
JAK2, sequence (O60674 849-1124): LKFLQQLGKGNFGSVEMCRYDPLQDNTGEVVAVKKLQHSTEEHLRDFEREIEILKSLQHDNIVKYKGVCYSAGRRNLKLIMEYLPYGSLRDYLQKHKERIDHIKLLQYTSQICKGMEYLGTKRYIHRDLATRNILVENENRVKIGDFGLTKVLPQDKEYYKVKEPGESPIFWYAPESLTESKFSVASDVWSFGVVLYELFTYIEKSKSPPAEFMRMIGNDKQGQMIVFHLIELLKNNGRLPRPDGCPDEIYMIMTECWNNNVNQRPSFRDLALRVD

On to `N#CCC1(n2cc(C(N)=O)c(Nc3ccc(F)cc3)n2)CCN(Cc2ccc3[nH]ccc3c2)CC1` [Example 22-55, 1-[4-(cyanomethyl)-1-(1H-indol-5-ylmethyl)piperidin-4-yl]-3-[(4-fluorophenyl)amino]-1H-pyrazole-4-carboxamide], for which the IC50 at JAK2 came out at 53 nM; at JAK1, 4 nM.

Take `N#CCC1(n2cc(C(N)=O)c(Nc3ccc(F)cc3)n2)CCN(Cc2ccc3cc[nH]c3c2)CC1` [Example 22-56, 1-[4-(cyanomethyl)-1-(1H-indol-6-ylmethyl)piperidin-4-yl]-3-[(4-fluorophenyl)amino]-1H-pyrazole-4-carboxamide]: the IC50 stood at 46 nM on JAK2 and 2 nM on JAK1.

As for `N#CCC1(n2cc(C(N)=O)c(Nc3ccc(F)cc3)n2)CCN(Cc2cccc3[nH]ccc23)CC1` [Example 22-57, 1-[4-(cyanomethyl)-1-(1H-indol-4-ylmethyl)piperidin-4-yl]-3-[(4-fluorophenyl)amino]-1H-pyrazole-4-carboxamide], the values for the IC50 against JAK2 and on JAK1 were 280 nM and 14 nM, respectively.

Turning to `N#CCC1(n2cc(C(N)=O)c(Nc3ccc(F)cc3)n2)CCN(Cc2cccc3cc[nH]c23)CC1` [Example 22-58, 1-[4-(cyanomethyl)-1-(1H-indol-7-ylmethyl)piperidin-4-yl]-3-[(4-fluorophenyl)amino]-1H-pyrazole-4-carboxamide], the results for the IC50 against JAK2 and at JAK1 were 128 nM and 4 nM, respectively.

`N#CCC1(n2cc(C(N)=O)c(Nc3ccnc(F)c3)n2)CCN(Cc2ccccc2Cl)CC1` [Example 22-59, 1-[1-(2-chlorobenzyl)-4-(cyanomethyl)piperidin-4-yl]-3-[(2-fluoropyridin-4-yl)amino]-1H-pyrazole-4-carboxamide]: the IC50 on JAK2 is 7 nM; on JAK1 it was 0.2 nM.

Consider `N#CCC1(n2cc(C(N)=O)c(Nc3ccnc(F)c3)n2)CCN(Cc2ccc(O)cc2)CC1` [Example 22-60, 1-[4-(cyanomethyl)-1-(4-hydroxybenzyl)piperidin-4-yl]-3-[(2-fluoropyridin-4-yl)amino]-1H-pyrazole-4-carboxamide], for which the IC50 on JAK2 turned out to be 6 nM; on JAK1, 0.1 nM.

Regarding `N#CCC1(n2cc(C(N)=O)c(Nc3ccnc(F)c3)n2)CCN(Cc2cccc(Cl)c2)CC1` [Example 22-61, 1-[1-(3-chlorobenzyl)-4-(cyanomethyl)piperidin-4-yl]-3-[(2-fluoropyridin-4-yl)amino]-1H-pyrazole-4-carboxamide], the IC50 at JAK2 was found to be 10 nM; on JAK1, 0.4 nM.

On to `N#CCC1(n2cc(C(N)=O)c(Nc3ccnc(F)c3)n2)CCN(Cc2cccc(C#N)c2)CC1` [Example 22-62, 1-[1-(3-cyanobenzyl)-4-(cyanomethyl)piperidin-4-yl]-3-[(2-fluoropyridin-4-yl)amino]-1H-pyrazole-4-carboxamide], for which the IC50 against JAK2 came to 33 nM; at JAK1, 0.9 nM.

With `COc1cccc(CN2CCC(CC#N)(n3cc(C(N)=O)c(Nc4ccnc(F)c4)n3)CC2)c1` [Example 22-63, 1-[4-(cyanomethyl)-1-(3-methoxybenzyl)piperidin-4-yl]-3-[(2-fluoropyridin-4-yl)amino]-1H-pyrazole-4-carboxamide], the concentration for half-maximal inhibition (IC50) against JAK2 is 20 nM; at JAK1, 0.5 nM.

Take `COc1ccc(CN2CCC(CC#N)(n3cc(C(N)=O)c(Nc4ccnc(F)c4)n3)CC2)cc1` [Example 22-65, 1-[4-(cyanomethyl)-1-(4-methoxybenzyl)piperidin-4-yl]-3-[(2-fluoropyridin-4-yl)amino]-1H-pyrazole-4-carboxamide]: the IC50 was 16 nM against JAK2 and 1 nM at JAK1.

As to `N#CCC1(n2cc(C(N)=O)c(Nc3ccnc(F)c3)n2)CCN(Cc2cccc(=O)[nH]2)CC1` [Example 22-67, 1-{4-(cyanomethyl)-1-[(6-oxo-1,6-dihydropyridin-2-yl)methyl]piperidin-4-yl}-3-[(2-fluoropyridin-4-yl)amino]-1H-pyrazole-4-carboxamide], the IC50 on JAK2 was 68 nM; at JAK1, 1 nM.

Take `N#CCC1(n2cc(C(N)=O)c(Nc3ccnc(F)c3)n2)CCN(Cc2ccc(C#N)cc2)CC1` [Example 22-69, 1-[1-(4-cyanobenzyl)-4-(cyanomethyl)piperidin-4-yl]-3-[(2-fluoropyridin-4-yl)amino]-1H-pyrazole-4-carboxamide]: the IC50 against JAK2 turned out to be 9 nM; at JAK1, 0.2 nM.

For the molecule `N#CCC1(n2cc(C(N)=O)c(Nc3ccnc(F)c3)n2)CCN(Cc2cccc(O)c2)CC1` [Example 22-70, 1-[4-(cyanomethyl)-1-(3-hydroxybenzyl)piperidin-4-yl]-3-[(2-fluoropyridin-4-yl)amino]-1H-pyrazole-4-carboxamide], the results for the IC50 at JAK2 and on JAK1 were 1 nM and 0.04 nM, respectively.

Take `N#CCC1(n2cc(C(N)=O)c(Nc3ccnc(F)c3)n2)CCN(Cc2ccc(Cl)cc2)CC1` [Example 22-71, 1-[1-(4-chlorobenzyl)-4-(cyanomethyl)piperidin-4-yl]-3-[(2-fluoropyridin-4-yl)amino]-1H-pyrazole-4-carboxamide]: the results for the IC50 against JAK2 and on JAK1 were 4 nM and 0.1 nM, respectively.

As to `N#CCC1(n2cc(C(N)=O)c(Nc3ccnc(F)c3)n2)CCN(Cc2ccccc2C#N)CC1` [Example 22-72, 1-[1-(2-cyanobenzyl)-4-(cyanomethyl)piperidin-4-yl]-3-[(2-fluoropyridin-4-yl)amino]-1H-pyrazole-4-carboxamide], the 50% inhibitory concentration (IC50) at JAK2 stood at 13 nM; on JAK1 it was 0.3 nM.

As for `CC(c1ccccc1)N1CCC(CC#N)(n2cc(C(N)=O)c(Nc3ccc(F)cc3)n2)CC1` (centres unmarked) [Example 23, 1-(4-(Cyanomethyl)-1-(1-phenylethyl)piperidin-4-yl)-3-((4-fluorophenyl)amino)-1H-pyrazole-4-carboxamide], the IC50 turned out to be 105 nM at JAK2 and 4 nM at JAK1.

`N#CCC1(n2cc(C(N)=O)c(Nc3ccc(F)cc3)n2)CCN(CCF)CC1` [Example 24-1, 1-(4-(Cyanomethyl)-1-(2-fluoroethyl)piperidin-4-yl)-3-((4-fluorophenyl)amino)-1H-pyrazole-4-carboxamide]: the concentration for half-maximal inhibition (IC50) against JAK2 was determined as 59 nM; at JAK1 it was 10 nM.

For `N#CCC1(n2cc(C(N)=O)c(Nc3ccc(F)cc3)n2)CCN(CC2CC2)CC1` [Example 24-2, 1-[4-(cyanomethyl)-1-(cyclopropylmethyl)piperidin-4-yl]-3-[(4-fluorophenyl)amino]-1H-pyrazole-4-carboxamide], the IC50 against JAK2 stood at 917 nM; on JAK1, 41 nM.

Turning to `N#CCC1(n2cc(C(N)=O)c(Nc3ccc(F)cc3)n2)CCN(c2ccccn2)CC1` [Example 25, 1-(4-(Cyanomethyl)-1-(pyridin-2-yl)piperidin-4-yl)-3-(4-fluorophenylamino)-1H-pyrazole-4-carboxamide], the IC50 was found to be 2 nM against JAK2 and 0.08 nM at JAK1.

For `N#CCC1(n2cc(C(N)=O)c(Nc3ccc(F)cc3)n2)CCN(c2ccncn2)CC1` [Example 26, 1-[4-(Cyanomethyl)-1-pyrimidin-4-ylpiperidin-4-yl]-3-[(4-fluorophenyl)amino]-1H-pyrazole-4-carboxamide], the IC50 was 5 nM against JAK2 and 0.4 nM at JAK1.

As to `COC(=O)N1CCC(CC#N)(n2cc(C(N)=O)c(Nc3ccc(S(=O)(=O)C(F)(F)F)cc3)n2)CC1` [Example 27-1, Methyl 4-(4-carbamoyl-3-(4-(trifluoromethylsulfonyl)phenylamino)-1H-pyrazol-1-yl)-4-(cyanomethyl)piperidine-1-carboxylate], the concentration for half-maximal inhibition (IC50) at JAK2 was found to be 2 nM; at JAK1, 0.3 nM.

Regarding `COCCOC(=O)N1CCC(CC#N)(n2cc(C(N)=O)c(Nc3ccc(S(=O)(=O)C(F)(F)F)cc3)n2)CC1` [Example 27-2, 2-methoxyethyl 4-(4-carbamoyl-3-(4-(trifluoromethylsulfonyl)phenylamino)-1H-pyrazol-1-yl)-4-(cyanomethyl)piperidine-1-carboxylate], the 50% inhibitory concentration (IC50) came to 6 nM at JAK2 and 0.3 nM at JAK1.

Consider `COC(=O)N1CCC(CC#N)(n2cc(C(N)=O)c(Nc3ccc(S(C)(=O)=O)cc3)n2)CC1` [Example 27-3, methyl 4-(4-carbamoyl-3-{[4-(methylsulfonyl)phenyl]amino}-1H-pyrazol-1-yl)-4-(cyanomethyl)piperidine-1-carboxylate], for which the values for the 50% inhibitory concentration (IC50) on JAK2 and at JAK1 were 16 nM and 1 nM, respectively.

Regarding `N#CCC1(n2cc(C(N)=O)c(Nc3ccccc3)n2)CCN(C(=O)OCc2ccccc2)CC1` [Example 27-4, benzyl 4-[4-carbamoyl-3-(phenylamino)-1H-pyrazol-1-yl]-4-(cyanomethyl)piperidine-1-carboxylate], the values for the IC50 at JAK2 and at JAK1 were 85 nM and 3 nM, respectively.

With `COC(=O)N1CCC(CC#N)(n2cc(C(N)=O)c(Nc3ccccc3)n2)CC1` [Example 27-5, methyl 4-[4-carbamoyl-3-(phenylamino)-1H-pyrazol-1-yl]-4-(cyanomethyl)piperidine-1-carboxylate], the IC50 on JAK2 came to 235 nM; at JAK1, 50 nM.

`COCC(C)(C)OC(=O)N1CCC(CC#N)(n2cc(C(N)=O)c(Nc3ccc(F)cc3)n2)CC1` [Example 28, 2-Methoxy-1,1-dimethylethyl 4-{4-carbamoyl-3-[(4-fluorophenyl)amino]-1H-pyrazol-1-yl}-4-(cyanomethyl)piperidine-1-carboxylate]: the figures for the IC50 against JAK2 and at JAK1 were 74 nM and 4 nM, respectively.

On to `CC(C)(CO)OC(=O)N1CCC(CC#N)(n2cc(C(N)=O)c(Nc3ccc(F)cc3)n2)CC1` [Example 29, 1-Hydroxy-2-methylpropan-2-yl 4-{4-carbamoyl-3-[(4-fluorophenyl)amino]-1H-pyrazol-1-yl}-4-(cyanomethyl)piperidine-1-carboxylate], for which the IC50 against JAK2 came to 96 nM; on JAK1, 2 nM.

Regarding `N#CCC1(n2cc(C(N)=O)c(Nc3ccnc(F)c3)n2)CCN(C(=O)OCC(F)(F)F)CC1` [Example 30-1, 2,2,2-Trifluoroethyl 4-{4-carbamoyl-3-[(2-fluoropyridin-4-yl)amino]-1H-pyrazol-1-yl}-4-(cyanomethyl)piperidine-1-carboxylate], the 50% inhibitory concentration (IC50) at JAK2 is 8 nM; at JAK1, 0.2 nM.
